Data as given in PubChem BioAssay AID1259407 (Chemical Carcinogenesis Research Information System (CCRIS), 2018).
Active and inactive are the calls of the source. How the calls were made is not given here.

Tested on: CCRIS mutagenicity, Ames/micronucleus/aberration tests
Experiment: CCRIS mutagenicity studies
[1] = Test System: AMES SALMONELLA TYPHIMURIUM, Strain/Indicator: TA98, Metabolic Activation: NONE, Method: STANDARD PLATE
[2] = Test System: AMES SALMONELLA TYPHIMURIUM, Strain/Indicator: TA98, Metabolic Activation: RAT, LIVER, S-9, AROCLOR 1254, Method: STANDARD PLATE
[3] = Test System: AMES SALMONELLA TYPHIMURIUM, Strain/Indicator: TA100, Metabolic Activation: NONE, Method: STANDARD PLATE
[4] = Test System: AMES SALMONELLA TYPHIMURIUM, Strain/Indicator: TA100, Metabolic Activation: RAT, LIVER, S-9, AROCLOR 1254, Method: STANDARD PLATE
[5] = Test System: AMES SALMONELLA TYPHIMURIUM, Strain/Indicator: TA1535, Metabolic Activation: NONE, Method: STANDARD PLATE
[6] = Test System: AMES SALMONELLA TYPHIMURIUM, Strain/Indicator: TA1537, Metabolic Activation: NONE, Method: STANDARD PLATE

SMILES: CCOC(=O)CC(SP(=S)(OC)OC)C(=O)OCC (centres undefined)
- mutagenic call (End Point: IN VITRO CHROMOSOMAL ABERRATIONS, Test System: CHINESE HAMSTER OVARY CELLS, Metabolic Activation: NONE): inactive; negative
- mutagenic call (End Point: IN VITRO CHROMOSOMAL ABERRATIONS, Test System: CHINESE HAMSTER OVARY CELLS, Metabolic Activation: RAT, LIVER, S-9, AROCLOR 1254): active; positive; precipitation occurred at all doses
- mutagenic call (End Point: IN VITRO MICRONUCLEUS, Test System: HUMAN PERIPHERAL LYMPHOCYTES, Metabolic Activation: NONE, Method: DUAL COLOR PROBE): active; positive
- mutagenic call (End Point: IN VIVO CHROMOSOMAL ABERRATIONS, Test System: BONE MARROW, Species: MOUSE, Strain/Sex: SWISS/MALE, Route: IP INJECTION): active; positive (structural changes: chromosome gaps, abnormal metaphases)
- mutagenic call (End Point: IN VIVO CHROMOSOMAL ABERRATIONS, Test System: BONE MARROW, Species: MOUSE, Strain/Sex: SWISS/MALE, Route: ORAL (DIET)): active; positive (structural changes: gaps, breaks, deletions, tetraploidy)
- mutagenic call (End Point: IN VIVO MICRONUCLEUS, Test System: BONE MARROW POLYCHROMATIC ERYTHROCYTES, Species: MOUSE, Strain/Sex: SWISS/MALE, FEMALE, Route: IP INJECTION): active; positive; higher dose effective
- mutagenic call (End Point: IN VIVO MICRONUCLEUS, Test System: BONE MARROW POLYCHROMATIC ERYTHROCYTES, Species: MOUSE, Strain/Sex: SWISS/MALE, FEMALE, Route: ORAL): active; positive
- mutagenic call (End Point: In vivo micronucleus, Test System: Peripheral blood polychromatic and normochromatic erythrocytes, Species: Rat, Strain/Sex: Wistar/Male, Route: Intraperitoneal): active; positive. positive response at highest dose.
- mutagenic call (End Point: In vivo micronucleus, Test System: Peripheral blood polychromatic erythrocytes, Species: Rat, Strain/Sex: Wistar/Male, Route: Intraperitoneal): inactive; negative. increases in ratio of polychromatic erythrocytes to normochromatic lym
- mutagenic call (Test System: AMES SALMONELLA TYPHIMURIUM, Strain/Indicator: TA97A, Metabolic Activation: NONE, Method: STANDARD PLATE): inactive; negative
- mutagenic call (Test System: AMES SALMONELLA TYPHIMURIUM, Strain/Indicator: TA97A, Metabolic Activation: RAT, CECAL CELL FREE EXTRACT, Method: STANDARD PLATE): inactive; negative
- mutagenic call (Test System: AMES SALMONELLA TYPHIMURIUM, Strain/Indicator: TA97A, Metabolic Activation: RAT, LIVER, S-9, AROCLOR 1254, Method: STANDARD PLATE): inactive; negative
- mutagenic call [1]: inactive; negative
- mutagenic call (Test System: AMES SALMONELLA TYPHIMURIUM, Strain/Indicator: TA98, Metabolic Activation: RAT, CECAL CELL FREE EXTRACT, Method: STANDARD PLATE): inactive; negative
- mutagenic call [2]: inactive; negative
- mutagenic call (Test System: AMES SALMONELLA TYPHIMURIUM, Strain/Indicator: TA98, Metabolic Activation: S-9, NADPH GENERATING SYSTEM, Method: STANDARD PLATE): inactive; negative
- mutagenic call [3]: inactive; negative
- mutagenic call (Test System: AMES SALMONELLA TYPHIMURIUM, Strain/Indicator: TA100, Metabolic Activation: RAT, CECAL CELL FREE EXTRACT, Method: STANDARD PLATE): inactive; negative
- mutagenic call [4]: inactive; negative
- mutagenic call (Test System: AMES SALMONELLA TYPHIMURIUM, Strain/Indicator: TA102, Metabolic Activation: NONE, Method: STANDARD PLATE): inactive; negative
- mutagenic call (Test System: AMES SALMONELLA TYPHIMURIUM, Strain/Indicator: TA102, Metabolic Activation: S-9, NADPH GENERATING SYSTEM, Method: STANDARD PLATE): inactive; negative
- mutagenic call [5]: inactive; negative
- mutagenic call (Test System: AMES SALMONELLA TYPHIMURIUM, Strain/Indicator: TA1535, Metabolic Activation: S-9, NADPH GENERATING SYSTEM, Method: STANDARD PLATE): inactive; negative
- mutagenic call [6]: inactive; negative
- mutagenic call (Test System: AMES SALMONELLA TYPHIMURIUM, Strain/Indicator: TA1537, Metabolic Activation: S-9, NADPH GENERATING SYSTEM, Method: STANDARD PLATE): inactive; negative

SMILES: Clc1cc(Cl)nc(Cl)n1
- mutagenic call (Test System: AMES SALMONELLA TYPHIMURIUM, Strain/Indicator: TA98, Metabolic Activation: HAMSTER, LIVER, S-9, AROCLOR 1254, Method: STANDARD PLATE): inactive; negative
- mutagenic call [1]: inactive; negative
- mutagenic call [2]: inactive; negative
- mutagenic call (Test System: AMES SALMONELLA TYPHIMURIUM, Strain/Indicator: TA100, Metabolic Activation: HAMSTER, LIVER, S-9, AROCLOR 1254, Method: STANDARD PLATE): inactive; negative
- mutagenic call [3]: inactive; negative
- mutagenic call [4]: inactive; negative
- mutagenic call (Test System: AMES SALMONELLA TYPHIMURIUM, Strain/Indicator: TA1535, Metabolic Activation: HAMSTER, LIVER, S-9, AROCLOR 1254, Method: STANDARD PLATE): inactive; negative
- mutagenic call [5]: inactive; negative
- mutagenic call (Test System: AMES SALMONELLA TYPHIMURIUM, Strain/Indicator: TA1535, Metabolic Activation: RAT, LIVER, S-9, AROCLOR 1254, Method: STANDARD PLATE): inactive; negative
- mutagenic call (Test System: AMES SALMONELLA TYPHIMURIUM, Strain/Indicator: TA1537, Metabolic Activation: HAMSTER, LIVER, S-9, AROCLOR 1254, Method: STANDARD PLATE): inactive; negative
- mutagenic call [6]: inactive; negative
- mutagenic call (Test System: AMES SALMONELLA TYPHIMURIUM, Strain/Indicator: TA1537, Metabolic Activation: RAT, LIVER, S-9, AROCLOR 1254, Method: STANDARD PLATE): inactive; negative
- mutagenic call (Test System: AMES SALMONELLA TYPHIMURIUM, Strain/Indicator: TA1538, Metabolic Activation: HAMSTER, LIVER, S-9, AROCLOR 1254, Method: STANDARD PLATE): inactive; negative
- mutagenic call (Test System: AMES SALMONELLA TYPHIMURIUM, Strain/Indicator: TA1538, Metabolic Activation: NONE, Method: STANDARD PLATE): inactive; negative
- mutagenic call (Test System: AMES SALMONELLA TYPHIMURIUM, Strain/Indicator: TA1538, Metabolic Activation: RAT, LIVER, S-9, AROCLOR 1254, Method: STANDARD PLATE): inactive; negative
- mutagenic call (Test System: Mouse lymphoma, Strain/Indicator: L5178Y (tk+/tk-), Metabolic Activation: None, Method: Suspension/plate): active; inconclusive (previous evaluation positive)
- mutagenic call (Test System: Mouse lymphoma, Strain/Indicator: L5178Y (tk+/tk-), Metabolic Activation: Rat, Liver, S-9, Aroclor 1254, Method: Suspension/plate): active; positive

SMILES: COc1cccc2c1CC([N+](=O)[O-])c1ccc3c(c1-2)OCO3 (centres undefined)
- mutagenic call (Test System: AMES SALMONELLA TYPHIMURIUM, Strain/Indicator: D3052, Metabolic Activation: NONE, Method: STANDARD PLATE): inactive; negative
- mutagenic call (Test System: AMES SALMONELLA TYPHIMURIUM, Strain/Indicator: D3052, Metabolic Activation: RAT, LIVER, S-9, PHENOBARBITAL, Method: STANDARD PLATE): inactive; negative
- mutagenic call (Test System: AMES SALMONELLA TYPHIMURIUM, Strain/Indicator: G46, Metabolic Activation: NONE, Method: STANDARD PLATE): inactive; negative
- mutagenic call (Test System: AMES SALMONELLA TYPHIMURIUM, Strain/Indicator: G46, Metabolic Activation: RAT, LIVER, S-9, PHENOBARBITAL, Method: STANDARD PLATE): inactive; negative
- mutagenic call [1]: active; positive
- mutagenic call (Test System: AMES SALMONELLA TYPHIMURIUM, Strain/Indicator: TA98, Metabolic Activation: RAT, LIVER, S-9, PHENOBARBITAL, Method: STANDARD PLATE): active; positive
- mutagenic call [3]: active; positive
- mutagenic call (Test System: AMES SALMONELLA TYPHIMURIUM, Strain/Indicator: TA100, Metabolic Activation: RAT, LIVER, S-9, PHENOBARBITAL, Method: STANDARD PLATE): active; positive
- mutagenic call [5]: active; positive
- mutagenic call (Test System: AMES SALMONELLA TYPHIMURIUM, Strain/Indicator: TA1535, Metabolic Activation: RAT, LIVER, S-9, PHENOBARBITAL, Method: STANDARD PLATE): active; positive
- mutagenic call (Test System: AMES SALMONELLA TYPHIMURIUM, Strain/Indicator: TA1978, Metabolic Activation: NONE, Method: STANDARD PLATE): inactive; negative
- mutagenic call (Test System: AMES SALMONELLA TYPHIMURIUM, Strain/Indicator: TA1978, Metabolic Activation: RAT, LIVER, S-9, PHENOBARBITAL, Method: STANDARD PLATE): inactive; negative

SMILES: Cc1cc(-c2ccccc2)cc(C)c1N
- mutagenic call [1]: inactive; negative
- mutagenic call (Test System: AMES SALMONELLA TYPHIMURIUM, Strain/Indicator: TA98, Metabolic Activation: RAT LIVER S-9, AROCLOR, Method: STANDARD PLATE): active; positive
- mutagenic call [3]: inactive; negative
- mutagenic call (Test System: AMES SALMONELLA TYPHIMURIUM, Strain/Indicator: TA100, Metabolic Activation: RAT LIVER S-9, AROCLOR, Method: STANDARD PLATE): active; positive

SMILES: Brc1ccc(C2CO2)cc1 (centres undefined)
- mutagenic call (Test System: E. COLI, Strain/Indicator: WP2 UVRA, Metabolic Activation: NONE, Method: STANDARD PLATE): active; positive
